This is an account of results in paper PMC12683522 (Frontiers in Pharmacology, 2025).

On the set-up of data set [1]: method as in Eser et al., 2022. Particulars: intragastric pH above 4.5; ref Eser et al., 2022; cited from earlier work.
A short description of data set [2]: Safety assessment (adverse events, CTCAE v5.0). It is filed as in vivo, healthy Chinese subjects. The method, then: Safety assessments included AEs, SAEs, concomitant medications, laboratory tests, clinical symptoms, vital sign measurements, 12-lead ECG and physical examination results. […] Laboratory tests, physical examinations, and 12-lead ECG were performed at screening and during the follow-up period. All AEs were monitored throughout the study by the research doctors and spontaneously reported by the subjects. AEs were coded using MedDRA (Medical Dictionary for Regulatory Activities: Version 26.1) and summarized according to System Organ Class (SOC) and Preferred Term (PT), including the number and percentage of subjects experiencing AEs and the frequency of AEs. The severity of AEs was graded according to the Common Terminology Criteria for Adverse Events (CTCAE, Version 5.0) issued by the U.S. National Cancer Institute. Missing safety data were labeled as “Missing” in the datasets and were not imputed in the subsequent analyses.

The nature of data set [3]: Single-dose pharmacokinetics of palbociclib tablets under fasting conditions with rabeprazole pre-treatment. It is filed as in vivo, healthy Chinese subjects. Particulars: sampling to 96 h after administration. On the procedure:
This was a single-center, randomized, open-label, single-dose, two-period crossover bioequivalence study conducted under fasting conditions with rabeprazole pre-treatment. It was carried out at the Phase I Clinical Research Center of Hebei General Hospital in Shijiazhuang, Hebei Province, China, from 12 September 2023, to 27 October 2023. […] Water intake was prohibited from 1 h before to 1 h after each dose (except for breakfast and water used for medication administration). On Day 1, under fasted conditions (at least 10 h), subjects received their seventh dose of rabeprazole and maintained fasting for an additional 4 h. […]
Tmax, t1/2z, elimination rate constant (λz) and percentage of extrapolated residual area (AUC_%Extrap) were the secondary endpoints. […] Cmax and Tmax were determined directly from the observed plasma concentration-time profiles. AUC0-t was calculated using the linear/log trapezoidal method. AUC0‐∞ was determined by formula: AUC0‐∞ = AUC0-t + Ct/λz, where Ct was the last measurable concentration. The slope of the terminal segment of the semi-logarithmic drug-time curve calculated by linear regression is used to obtain λz. t1/2z was calculated as ln2/λz. AUC_%Extrap was determined by formula: AUC_%Extrap = [( AUC0‐∞ - AUC0-t)/ AUC0‐∞ ]×100%. For pharmacokinetic parameters that cannot be calculated due to inapplicable data, they are marked with “-” in the dataset.

Data set [4] is described as follows: Bioequivalence analysis of test vs reference palbociclib tablets (GLSM ratio, 90% CI). It is filed as in vivo, healthy Chinese subjects. Conditions: fasting, rabeprazole pre-treatment. On the procedure:
After log-transforming Cmax, AUC0−t, and AUC0‐∞ , analysis of variance (using the PROC MIXED method) was performed via a mixed linear effects model, with formulation, period, and sequence treated as fixed effects and subject nested within sequence as a random effect. Throughout the analyses, missing data were, in principle, not imputed. Bioequivalence was assessed using the two one-sided t-tests, and the 90% confidence interval (CI) for the ratio of the geometric least squares means of the two formulations was calculated. If the CI fell entirely within the range of 80.00%–125.00%, the formulations were deemed bioequivalent. Tmax was evaluated using the non-parametric Wilcoxon signed-rank test, and statistical significance was considered when P < 0.05. Pharmacokinetic parameters were calculated using Phoenix WinNonlin (version 8.3), while the remaining statistical analyses and data processing were performed by SAS software (version 9.4). Continuous variables were presented with descriptive statistics, and categorical data were expressed as frequencies and percentages.

For the molecule `CC(=O)c1c(C)c2cnc(Nc3ccc(N4CCNCC4)cn3)nc2n(C2CCCC2)c1=O` [palbociclib], in data set [1], the solubility was < 500 µg/mL. Besides, the “severity of AEs” value in data set [2] (CTCAE v5.0) was “mild and reported as grade 1”. The “adverse events confirmed as adverse reactions” value in data set [2] (of 28 adverse events in 17 subjects) came to 4. Also, in data set [2] (safety analysis set), the “Sum of treatment-emergent AEs, AE count” value is on record as 28; the “incidence of AEs” value is 51.5%; the “serious adverse events (SAEs)” value was “No SAEs occurred”. In data set [3], the “share of AUC0‐∞ covered by AUC0-t” value came out at 93%. Further, in data set [4], the “Intra-subject CV of AUC0-t” value was found to be 6.14%, the “Intra-subject CV of AUC0‐∞” value is 5.83% and the “Intra-subject CV of Cmax” value amounted to 9.65%.

The solubility is how much of the substance goes into solution per volume.
